Source: patent USRE36481E, “HMG-CoA reductase inhibitors” (Merck & Co., Inc., priority 1998, dated 2000)

Legend:
[1] = system: HMG-CoA reductase; test: HMG-CoA Reductase Inhibition Assay (in vitro, relative to compactin); type: biochemical; conditions: IC50 compared with compactin determined simultaneously, compactin assigned 100; tested as sodium salt of dihydroxy acid form; solubilized rat liver microsomal enzyme
Description: The intrinsic HMG-CoA reductase inhibition activity of the claimed compounds is measured in the in vitro protocol published in J. Med. Chem., 28, p. […] (1985) and described below: Male Holtzman Sprague-Dawley rats (225-250 g) were kept on reversed lighting and fed Purina rat chow containing 3% cholestyramine for 7 days preceding their sacrifice by CO2 asphyxiation. Livers were removed 6 hours into the dark cycle and used immediately to prepare microsomes. HMG-CoA reductase was solubilized from the freshly prepared microsomes by the method of Heller and Shrewsbury [J. Biol. Chem., 1976, 251, 3815]and purified through the second ammonium sulfate precipitation step as described by Kleinsek et al. [Proc. Natl. Acad. Sci. USA, 1977, 74, 1431]. […] The enzyme preparation was stored at -80° C. The assay is essentially the procedure of Shefer et al. [J. Lipid Res., 1972, 13, 402]. The complete assay medium contained the following in a total volume of 0.8 ml: phosphate buffer, pH 7.2, 100 mM; MgCl2, 3 mM; NADP, 3 mM; glucose-6-phosphate, 10 mM; glucose-6-phosphate dehydro-genase, 3 enzyme units; reduced glutathione 50 mM; HMG-CoA (glutaryl-3-^14 C, New England Nuclear), 0.2 mM (0.1 μCi); and partially purified enzyme stock solution, 100 μL. […] After a 40-minute incubation at 37° C. with shaking and exposure to air, the reaction was stopped by the addition of 0.4 mL of 8 N HCl. After an additional 30-minute incubation period at 37° C. to ensure the complete lactonization of mevalonic acid to mevalonolactone, 0.2 ml of the mixture was added to an 0.5×5.0 cm column containing 100-200 mesh Bio-Rex 5, chloride form (Bio-Rad), wetted with distilled water, as described by Alberts et al. [Proc. Natl. Acad. Sci. U.S.A., 1980, 77, 3967]. The unreacted [^14 C]HMG-CoA was absorbed on the resin and the [^14 C]mevalonolactone was eluted with distilled water (2×1 ml) directly into 7-ml scintillation vials. Five milliliters of Aquasol-2 (New England Nuclear) was added to each vial, and radioactivity was measured in a Packard Tri Carb Prias scintillation counter. IC50 values were determined by plotting percentage inhibition against test compound concentration and fitting a straight line to the resulting data by using the least-squares method.

[2] = Standing of the free dihydroxy acid (reversion to lactone); type: physicochemical; conditions: free dihydroxy acid after isolation; can be maintained by increasing the pH above 7.0
Description: The sodium salt of the compound II from Example 64 is dissolved in 2 ml of ethanol-water (1:1; v:v) and added to 10 ml of 1N hydrochloric acid from which the dihydroxy acid is extracted with ethyl acetate. The organic extract is washed once with water, dried (Na2 SO4), and evaporated in vacuo with a bath temperature not exceeding 30° C. […] The dihydroxy acid can be maintained by increasing the pH above 7.0.

Row | Compound | Relative Potency [1] | stability of the dihydroxy acid on standing [2]
1 | CCC(C)(C)C(=O)O[C@H]1C[C@@H](C(O)c2ccccc2)C[C@@H]2CC[C@H](C)[C@H](CC[C@@H](O)C[C@@H](O)CC(=O)O)[C@H]21 (single isomer, unassigned) [-- -- -- S CHOHPH 1,1-dimethylpropyl] | 220 | –
2 | C[C@H]1CC[C@H]2C[C@H](CO)C[C@H](OC(=O)C3CCCCC3)[C@@H]2[C@H]1CC[C@@H](O)C[C@@H](O)CC(=O)O [-- -- -- S CH2 OH cyclohexyl] | 33 | –
3 | CCC(C)(C)C(=O)O[C@H]1C[C@H](COC(=O)Nc2ccccc2)C=C2C=C[C@H](C)[C@H](CC[C@@H](O)C[C@@H](O)CC(=O)O)[C@H]21 | 726 | –
4 | CCN(CC)C(=O)[C@@H]1C=C2C=C[C@H](C)[C@H](CC[C@@H](O)C[C@@H](O)CC(=O)O)[C@H]2[C@@H](OC(=O)C(C)(C)CC)C1 [db -- db S CONEt2 1,1-dimethylpropyl] | 65 | –
5 | CCC(C)(C)C(=O)O[C@H]1C[C@@H](C(N)=O)C[C@@H]2CC[C@H](C)[C@H](CC[C@@H](O)C[C@@H](O)CC(=O)O)[C@H]21 [-- -- -- S CONH2 1,1-dimethylpropyl] | 107 | –
6 | CCC(C)C(=O)O[C@H]1C[C@H](C(=O)O)C=C2C=C[C@H](C)[C@H](CC[C@@H](O)C[C@@H](O)CC(=O)O)[C@H]21 (stereo partly shown) [db -- db S CO2 H sec-butyl] | 26 | –
7 | CCC(C)(C)C(=O)O[C@H]1C[C@@H](C(=O)N(C)C)C[C@@H]2CC[C@H](C)[C@H](CC[C@@H](O)C[C@@H](O)CC(=O)O)[C@H]21 [-- -- -- S CONMe2 1,1-dimethylpropyl] | 75 | –
8 | CCC(C)(C)C(=O)O[C@H]1C[C@H](C(=O)N(C)C)C=C2C=C[C@H](C)[C@H](CC[C@@H](O)C[C@@H](O)CC(=O)O)[C@H]21 [db -- db S CONMe2 1,1-dimethylpropyl] | 82 | –
9 | CCC(C)(C)C(=O)O[C@H]1C[C@@H](C(=O)O)C[C@@H]2CC[C@H](C)[C@H](CC[C@@H](O)C[C@@H](O)CC(=O)O)[C@H]21 [-- -- -- S CO2 H 1,1-dimethylpropyl] | 79 | –
10 | CCC(C)(C)C(=O)O[C@H]1C[C@H](CO)C=C2C=C[C@H](C)[C@H](CC[C@@H](O)C[C@@H](O)CC(=O)O)[C@H]21 [db -- db S CH2 OH 1,1-dimethylpropyl] | 189 | –
11 | CCC(C)(C)C(=O)O[C@H]1C[C@@H](C(=O)OC(C)C)C[C@@H]2CC[C@H](C)[C@H](CC[C@@H](O)C[C@@H](O)CC(=O)O)[C@H]21 [-- -- -- S CO2 i-Pr 1,1-dimethylpropyl] | 80 | –
12 | CCC(C)(C)C(=O)O[C@H]1C[C@@H](C(=O)N(C(=O)NC2CCCCC2)C2CCCCC2)C[C@@H]2CC[C@H](C)[C@H](CC[C@@H](O)C[C@@H](O)CC(=O)O)[C@H]21 | 100 | –
13 | CCC(C)(C)C(=O)O[C@H]1C[C@@H](C(C)O)C[C@@H]2CC[C@H](C)[C@H](CC[C@@H](O)C[C@@H](O)CC(=O)O)[C@H]21 (single isomer, unassigned) [-- -- -- S CHOHCH3 (ISOMER B) 1,1-dimethylpropyl] | 113 | –
14 | CCC(C)(C)C(=O)O[C@H]1C[C@@H](C(=O)O)C=C2C=C[C@H](C)[C@H](CC[C@@H](O)C[C@@H](O)CC(=O)O)[C@H]21 [db -- db R CO2 H 1,1-dimethylpropyl] | 94 | –
15 | CCC(C)C(=O)O[C@H]1C[C@@H](CO)C=C2C=C[C@H](C)[C@H](CC[C@@H](O)C[C@@H](O)CC(=O)O)[C@H]21 (stereo partly shown) [db -- db R CH2 OH sec-butyl] | 47 | –
16 | CCC(C)(C)C(=O)O[C@H]1C[C@H](C(C)O)C[C@@H]2CC[C@H](C)[C@H](CC[C@@H](O)C[C@@H](O)CC(=O)O)[C@H]21 (single isomer, unassigned) [-- -- -- R CHOHCH3 (ISOMER B) 1,1-dimethylpropyl] | 104 | –
17 | CCC(C)(C)C(=O)O[C@H]1C[C@@H](C(C)O)C[C@@H]2CC[C@H](C)[C@H](CC[C@@H](O)C[C@@H](O)CC(=O)O)[C@H]21 (single isomer, unassigned) [-- -- -- S CHOHCH3 (ISOMER A) 1,1-dimethylpropyl] | 131 | –
18 | CCC(C)(C)C(=O)O[C@H]1C[C@@H](CO)C[C@@H]2CC[C@H](C)[C@H](CC[C@@H](O)C[C@@H](O)CC(=O)O)[C@H]21 [-- -- -- S CH2 OH 1,1-dimethylpropyl] | 86 | –
19 | CCC(C)(C)C(=O)O[C@H]1C[C@@H](CO)C=C2CC[C@H](C)[C@H](CC[C@@H](O)C[C@@H](O)CC(=O)O)[C@H]21 [db -- -- R CH2 OH 1,1-dimethylpropyl] | 213 | –
20 | CCC(C)(C)C(=O)O[C@H]1C[C@H](C(C)O)C[C@@H]2CC[C@H](C)[C@H](CC[C@@H](O)C[C@@H](O)CC(=O)O)[C@H]21 (single isomer, unassigned) [-- -- -- R CHOHCH3 (ISOMER A) 1,1-dimethylpropyl] | 111 | –
21 | CCOC(=O)[C@H]1C[C@@H]2CC[C@H](C)[C@H](CC[C@@H](O)C[C@@H](O)CC(=O)O)[C@H]2[C@@H](OC(=O)C(C)(C)CC)C1 [-- -- -- S CO2 Et 1,1-dimethylpropyl] | 125 | –
22 | CCC(C)(C)C(=O)OC[C@H]1C=C2CC[C@H](C)[C@H](CC[C@@H](O)C[C@@H](O)CC(=O)O)[C@H]2[C@@H](OC(=O)C(C)(C)CC)C1 | 33 | –
23 | CCC(C)(C)C(=O)OC[C@H]1C[C@@H]2CC[C@H](C)[C@H](CC[C@@H](O)C[C@@H](O)CC(=O)O)[C@H]2[C@@H](OC(=O)C(C)(C)CC)C1 | 100 | –
24 | CCC(C)(C)C(=O)O[C@H]1C[C@H](C(=O)O)C=C2C=C[C@H](C)[C@H](CC[C@@H](O)C[C@@H](O)CC(=O)O)[C@H]21 [db -- db S CO2 H 1,1-dimethylpropyl] | 99 | –
25 | CCC(C)(C)C(=O)O[C@H]1C[C@@H](CO)C[C@@H]2CC[C@H](C)[C@H](CC[C@@H](O)C[C@@H](O)CC(=O)O)[C@H]21 [Example 70] | – | slowly reverts to the corresponding,parent lactone on standing
